Measurements taken from patent publication US9573911B2, “Diphosphate mimetics and uses thereof” (President and Fellows of Harvard College, priority 2011, dated 2017).
One block for each compound: values may come before it.

Assays:
OGT [1] = biological target: T1, OGT (Homo sapiens, UniProt O15294); assay: IC50 assay, OGT peptide-capture assay; format: biochemical; conditions: peptide-capture assay, different concentrations of each compound, read-out: IC50 Values
T1 construct: hOGT4.5 construct (spanning residues 313-1031 based on the numbering of the full length human protein); made in house
T1 sequence (O15294 313-1031 isoform O15294-3): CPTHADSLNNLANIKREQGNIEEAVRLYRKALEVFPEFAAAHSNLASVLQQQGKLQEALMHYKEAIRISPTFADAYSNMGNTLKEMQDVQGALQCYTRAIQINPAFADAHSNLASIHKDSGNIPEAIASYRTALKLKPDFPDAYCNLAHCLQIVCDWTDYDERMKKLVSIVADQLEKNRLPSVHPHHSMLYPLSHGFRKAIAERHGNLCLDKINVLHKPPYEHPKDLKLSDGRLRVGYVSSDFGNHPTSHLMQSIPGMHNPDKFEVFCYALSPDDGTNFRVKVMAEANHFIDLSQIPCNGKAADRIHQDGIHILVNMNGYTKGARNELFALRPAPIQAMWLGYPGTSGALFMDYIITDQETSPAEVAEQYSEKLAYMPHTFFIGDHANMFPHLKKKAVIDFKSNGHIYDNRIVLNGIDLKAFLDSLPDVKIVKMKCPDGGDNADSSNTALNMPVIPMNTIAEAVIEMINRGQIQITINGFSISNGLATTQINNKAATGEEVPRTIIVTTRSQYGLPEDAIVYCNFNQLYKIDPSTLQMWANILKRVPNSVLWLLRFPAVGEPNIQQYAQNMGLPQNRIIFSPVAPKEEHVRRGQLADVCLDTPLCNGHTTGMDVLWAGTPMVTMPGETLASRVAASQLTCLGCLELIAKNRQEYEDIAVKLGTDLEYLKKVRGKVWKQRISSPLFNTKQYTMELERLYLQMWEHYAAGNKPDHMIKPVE
Procedure: IC50 Assay of Thiocarbamate to OGT.
Enzyme activity was tested with the peptide-capture assay in the presence of different concentrations of each compound as previously reported (J. Am. Chem. Soc. 2005, 127, 14588-14589).

OGT [2] = biological target: T1, OGT; assay: Time-dependent inactivation of OGT with BZX compounds; format: biochemical
From the text: Compound (1) was identified in a high-throughput screen of 65,000 compounds (FIG. 1). See, e.g., Gross et al., J. Am. Chem. Soc. (2005) 127:14588-14589. It contains a dicarbamate moiety that links two aromatic groups. This compound features a conjugated chemical structure and both carbamate carbonyls are potentially reactive. See, e.g., Alexander et al., Chem. Biol. (2005) 12:1179-1187. […] A small panel of related compounds was made from commercially available building blocks in order to identify structural features that might improve potency. Time-dependent inactivation studies were carried out in which OGT was preincubated with a three-fold excess of each compound for 5 min, and the mixture was then diluted 100-fold into buffer containing UDP-^14C-GlcNAc and the well-characterized peptide substrate, CKII. See, e.g., Kreppel et al., J. Biol. Chem. (1999) 274:32015-32022). Enzyme activity was measured using a previously developed peptide capture assay. See, e.g., Gross et al., J. Am. Chem. Soc. (2005) 127:14588-14589.
Each BZX compound (7.5 μM) was preincubated with 5 μM OGT in reaction buffer (125 mM NaCl, 1 mM EDTA, 20 mM potassium phosphate, pH 7.4, and 500 μM tris(hydroxypropyl)phosphine (THP)) at room temperature for different amount of time, then diluted 100-fold, mixed with substrates (6 μM UDP-^14C-GlcNAc and 500 μM CKII peptide (KKKYPGGSTPVSSANMM)) and allowed to react for another 2 h. Enzyme activity was tested with the peptide capture assay as previously reported. See, e.g., Gross et al., J. Am. Chem. Soc. (2005) 127:14588-14589. The final volume of each reaction was 20 μl, and the experiments were conducted in triplicate. The activities of OGT mutants were also tested in triplicate as previously reported. See, e.g., Gross supra.

Structure (SMILES): O=C(Oc1ccccc1)n1c(=O)oc2ccccc21 [Compound 5]
- IC50 (OGT [1]): > 100 µM

Structure (SMILES): COc1ccc(OC(=O)n2c(=O)oc3cc(C(C)=O)ccc32)cc1 [Compound 1]
- OGT enzyme activity after preincubation with compound (OGT [2]; three-fold excess of compound, 5 min preincubation, then diluted 100-fold): irreversible loss of enzyme activity

Now from value to compound:

- IC50 (OGT [1]): 60 µM
Structure (SMILES): O=C(Oc1ccccc1)n1c(=O)oc2cc([N+](=O)[O-])ccc21 [Compound 4]

- IC50 (OGT [1]): 18 µM
Structure (SMILES): COc1ccc(OC(=O)n2c(=O)oc3ccc(Cl)cc32)cc1 [Compound 3]

- IC50 (OGT [1]): ~100 µM
- inactivation time course of OGT (OGT [2]; 1.5:1 inhibitor:enzyme ratio): no inhibition
Structure (SMILES): COc1ccc2c(c1)oc(=O)n2C(=O)Oc1ccccc1 [Compound 6]
